According to PMC6270091, “GABAB-Agonistic Activity of Certain Baclofen Homologues” (Molecules, 2013):
Entries after “also recorded” stand apart in the source; their conditions may differ. Counter-ions that a name gives are not always drawn.

Columns and labels:
[1] = target: T1, GABABR1b/GABABR2 receptors co-expressed with the chimeric G protein Gαq-z5 in tsA201 cells (Rattus norvegicus, UniProt Q9Z0U4); assay: GABAB agonist activity, intracellular calcium (Fluo-4) in transfected tsA201 cells; format: cell-based; details: Ca2+ response; for GABABR agonistic activity (in words): tsA201 cells; for EC50: agonist, tsA201 cells transfected with GABAB1b/GABAB2/Gqz5
T1 construct: expressed in transfected cells; host or cells: tsA201 cells (transformed HEK293), transient transfection with pcDNA3.1 plasmids using SuperFect
T1 sequence (Q9Z0U4 1-844 isoform Q9Z0U4-3): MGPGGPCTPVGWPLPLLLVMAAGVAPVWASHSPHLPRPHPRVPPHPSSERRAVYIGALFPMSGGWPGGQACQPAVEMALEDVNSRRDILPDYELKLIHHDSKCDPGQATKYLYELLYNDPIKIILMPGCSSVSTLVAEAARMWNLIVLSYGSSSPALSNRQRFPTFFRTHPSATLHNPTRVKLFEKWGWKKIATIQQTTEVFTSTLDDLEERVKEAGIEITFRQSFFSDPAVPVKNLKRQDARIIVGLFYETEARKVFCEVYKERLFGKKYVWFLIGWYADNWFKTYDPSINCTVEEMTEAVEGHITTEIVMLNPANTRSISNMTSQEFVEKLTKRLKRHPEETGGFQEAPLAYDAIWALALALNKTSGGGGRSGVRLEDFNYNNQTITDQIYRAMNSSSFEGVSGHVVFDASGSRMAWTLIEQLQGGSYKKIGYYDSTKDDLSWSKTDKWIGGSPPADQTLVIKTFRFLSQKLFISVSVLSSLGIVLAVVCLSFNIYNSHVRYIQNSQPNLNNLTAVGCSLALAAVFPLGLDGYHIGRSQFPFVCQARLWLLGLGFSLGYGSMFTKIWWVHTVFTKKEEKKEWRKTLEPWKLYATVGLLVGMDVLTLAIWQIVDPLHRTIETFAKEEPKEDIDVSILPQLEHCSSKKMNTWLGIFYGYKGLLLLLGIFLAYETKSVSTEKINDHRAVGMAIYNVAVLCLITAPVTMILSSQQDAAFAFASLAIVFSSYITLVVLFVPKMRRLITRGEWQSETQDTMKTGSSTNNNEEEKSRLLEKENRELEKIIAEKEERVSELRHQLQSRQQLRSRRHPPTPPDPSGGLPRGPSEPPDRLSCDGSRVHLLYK
T1 sequence (O88871 41-940 partner): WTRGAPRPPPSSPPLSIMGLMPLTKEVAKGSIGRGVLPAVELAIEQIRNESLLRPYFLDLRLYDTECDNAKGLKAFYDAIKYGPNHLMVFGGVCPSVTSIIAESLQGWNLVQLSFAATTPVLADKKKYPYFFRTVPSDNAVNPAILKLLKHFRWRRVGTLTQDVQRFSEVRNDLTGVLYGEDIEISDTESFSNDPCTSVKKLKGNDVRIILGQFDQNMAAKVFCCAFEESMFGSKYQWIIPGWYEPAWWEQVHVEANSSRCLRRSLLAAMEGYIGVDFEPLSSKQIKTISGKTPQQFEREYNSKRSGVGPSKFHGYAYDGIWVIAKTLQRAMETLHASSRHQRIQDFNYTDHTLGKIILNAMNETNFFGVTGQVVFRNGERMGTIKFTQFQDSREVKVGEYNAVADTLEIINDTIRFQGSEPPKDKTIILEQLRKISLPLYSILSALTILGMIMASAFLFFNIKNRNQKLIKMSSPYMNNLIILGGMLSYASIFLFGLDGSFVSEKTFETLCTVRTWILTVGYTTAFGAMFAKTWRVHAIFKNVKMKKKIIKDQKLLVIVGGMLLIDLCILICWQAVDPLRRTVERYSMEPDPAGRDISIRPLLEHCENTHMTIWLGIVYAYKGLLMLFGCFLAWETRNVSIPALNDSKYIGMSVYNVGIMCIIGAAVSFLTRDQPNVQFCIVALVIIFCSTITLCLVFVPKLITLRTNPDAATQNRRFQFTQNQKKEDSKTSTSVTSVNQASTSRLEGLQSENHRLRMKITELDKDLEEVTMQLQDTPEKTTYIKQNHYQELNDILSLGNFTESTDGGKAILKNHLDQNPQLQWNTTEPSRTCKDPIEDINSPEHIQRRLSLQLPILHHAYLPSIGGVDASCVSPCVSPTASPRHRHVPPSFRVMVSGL
Excerpt: We have previously described a robust pharmacological assay of heterodimeric GABABR1b/GABABR2 receptors co-expressed with the chimeric G protein Gαq-z5 in tsA201 cells (a transformed HEK293 cell line). Co-expression of Gαq-z5 convert the endogenous coupling to the Gαi/o signaling pathway to the Gq pathway, which generally leads to more robust assays measured as increases in inositol phosphates or intracellular calcium levels.
Culture media, serum and antibiotics were obtained from Invitrogen (Paisley, UK). The rat GABABR plasmids and the Gαq-z5 construct were generous gifts from Dr. Janet Clark (National Institute of Health, Bethesda, MD, USA) and Dr. Bruce Conklin (University of California, San Francisco, CA, USA). The tsA201 cells were a generous gift from Dr. Penelope S. V. Jones (University of California, San Diego, CA, USA).
One million cells were split into a 10 cm tissue culture plate and transfected the following day with 0.7 μg GABABR1b-pcDNA3.1, 3.5 μg GABABR2-pcDNA3.1 and 0.7μg Gαq-z5-pcDNA using SuperFect as a DNA carrier according to the protocol by the manufacturer (Qiagen, Hilden, Germany). The day after transfection, cells were split into one poly-D-lysine coated 96-well black-walled–clear-bottomed tissue culture plates in the same medium as mentioned above and incubated overnight. The following day the measurement of intracellular calcium was performed as follows. The media was exchanged with Hanks balanced saline solution containing 1 mM CaCl2, 1 mM MgCl2, 20 mM HEPES, 2.5 mM probencid and 4 μM Fluo-4AM (pH = 7.4). […] Cells were then washed twice with the same buffer without Fluo-4AM and finally 100 μL of the buffer was left in the wells. […] Fluorescence readings were measured for 45 s after addition of ligand and response was calculated as peak response minus basal level. […] Twenty min after application of ligand, 10 μM GABA was added to the well and fluorescence was measured as above.
All data analysis has been carried out using GraphPad Prism version 6.0c for Mac OS X (GraphPad Software, San Diego, CA, USA). Concentration-response curves have been fitted by non-linear regression using the equation for sigmoidal concentration-response function:R = Rmin + (Rmax − Rmin)/(1 + 10 ^ (logEC50 − X)) in which X is the logarithm of the agonist concentration, R is the response, Rmax is the maximal response, Rmin is the minimal response and EC50 is the concentration giving half maximum response.

[2] = target: T1, GABABR1b/GABABR2 receptors co-expressed with the chimeric G protein Gαq-z5 in tsA201 cells; assay: GABAB antagonist test, intracellular calcium (Fluo-4) against 10 μM GABA in transfected tsA201 cells; format: cell-based; details: 1 mM concentration against 10 μM GABA
Excerpt: Regarding the structure-activity relationship in the synthesized series 1a–i, it has to be mentioned that mono-substitution on the aromatic moiety attached to the 3-position of the DAVA backbone with a halogen, especially a para-chloro, is optimum for GABABR agonistic activity. The synthesized compounds which evoked GABABR agonistic activity have the following decreasing order of activity: 1a > 1e > 1f.
TsA201 cells (a transformed human embryonic kidney (HEK) 293 cell line) were maintained at 37 °C in a humidified 5% CO2 incubator in Dulbecco’s modified Eagle medium (DMEM) supplemented with penicillin (100 U/mL), streptomycin ([…]) and 10% fetal calf serum. One million cells were split into a 10 cm tissue culture plate and transfected the following day with 0.7 μg GABABR1b-pcDNA3.1, 3.5 μg GABABR2-pcDNA3.1 and 0.7μg Gαq-z5-pcDNA using SuperFect as a DNA carrier according to the protocol by the manufacturer (Qiagen, Hilden, Germany). The day after transfection, cells were split into one poly-D-lysine coated 96-well black-walled–clear-bottomed tissue culture plates in the same medium as mentioned above and incubated overnight. The following day the measurement of intracellular calcium was performed as follows. The media was exchanged with Hanks balanced saline solution containing 1 mM CaCl2, 1 mM MgCl2, 20 mM HEPES, 2.5 mM probencid and 4 μM Fluo-4AM (pH = 7.4). The cells were incubated for 1 h at 37 °C in a humidified 5% CO2 incubator. Cells were then washed twice with the same buffer without Fluo-4AM and finally 100 μL of the buffer was left in the wells. The cell plate was then transferred to the NovoStar (BMG Labtechnologies, Offenburg, Germany) and the basal fluorescence level was adjusted to ~10,000 fluorescence units (FU) using excitation/emission wavelengths of 485–520 nm, respectively. Fluorescence readings were measured for 45 s after addition of ligand and response was calculated as peak response minus basal level. […] Twenty min after application of ligand, 10 μM GABA was added to the well and fluorescence was measured as above.

[3] = test system: GABAB receptors; set-up: method as in earlier work; details: cited from earlier work

Row | SMILES | melting point [°C] | EC50 [1] [µM] | GABABR antagonist activity [2] | further results
1 | NCCC(CC(=O)O)c1ccccc1 (racemic) (as salt: hydrochloride) [Compound 1d, (R,S)-5-Amino-3-phenylpentanoic acid hydrochloride] | 195 to 196 | – | – | –
2 | CC(CCN)CC(=O)O (racemic) [Compound 1i, (R,S)-5-amino-3-methylpentanoic acid] | 164 to 165 | > 300 | none of these compounds were effective | GABABR agonistic activity (in words) [1]: loss of GABABR agonistic activity; also recorded: devoid of GABABR agonistic activity
3 | NCCC(CC(=O)O)c1ccc(Cl)cc1Cl (racemic) (as salt: hydrochloride) [Compound 1b, (R,S)-5-Amino-3-(2,4-chlorophenyl)pentanoic acid hydrochloride] | 215 to 217 | – | – | –
4 | NCCC(CC(=O)O)c1ccc(F)cc1 (racemic) (as salt: hydrochloride) [Compound 1f, (R,S)-5-Amino-3-(4-fluorophenyl)pentanoic acid hydrochloride] | 208 to 210 | – | – | –
5 | NCCCC(C(=O)O)c1ccc(Cl)cc1 (racemic) [Compound 3, (R,S)-5-amino-2-(4-chlorophenyl)pentanoic acid] | – | – | – | interaction with GABAB receptors [3]: does not interact detectably
6 | COc1ccc(C(CCN)CC(=O)O)cc1 (racemic) [Compound 1h, (R,S)-5-Amino-3-(4-methoxyphenyl)pentanoic acid hydrochloride] | – | > 300 | none of these compounds were effective | –
7 | NCCC(CC(=O)O)c1ccc(Cl)c(Cl)c1 (racemic) [Compound 1e, (R,S)-5-Amino-3-(3,4-chlorophenyl)pentanoic acid hydrochloride] | – | 130 | – | –
8 | NCCC(CC(=O)O)c1ccc(Cl)cc1Cl (racemic) [Compound 1b, (R,S)-5-Amino-3-(2,4-chlorophenyl)pentanoic acid hydrochloride] | – | > 300 | none of these compounds were effective | GABABR agonistic activity (in words) [1]: lack of GABABR agonistic activity
9 | COc1cccc(C(CCN)CC(=O)O)c1 (racemic) [Compound 1g, (R,S)-5-Amino-3-(3-methoxyphenyl)pentanoic acid hydrochloride] | – | > 300 | none of these compounds were effective | –
10 | NCCC(CC(=O)O)c1ccc(Cl)c(Cl)c1 (racemic) (as salt: hydrochloride) [Compound 1e, (R,S)-5-Amino-3-(3,4-chlorophenyl)pentanoic acid hydrochloride] | 201 to 203 | – | – | –
11 | NCCC(CC(=O)O)c1ccc(Cl)cc1 (racemic) (as salt: hydrochloride) [Compound 1a, (R,S)-5-Amino-3-(4-chlorophenyl)pentanoic acid hydrochloride] | 201 to 203 | – | – | –
12 | NCCC(CC(=O)O)c1ccccc1 (racemic) [Compound 1d, (R,S)-5-Amino-3-phenylpentanoic acid hydrochloride] | – | > 300 | none of these compounds were effective | –
13 | Cc1ccc(C(CCN)CC(=O)O)cc1 (racemic) (as salt: hydrochloride) [Compound 1c, (R,S)-5-Amino-3-(4-methylphenyl)pentanoic acid hydrochloride] | 204 to 206 | – | – | –
14 | NCCC(CC(=O)O)c1ccc(F)cc1 (racemic) [Compound 1f, (R,S)-5-Amino-3-(4-fluorophenyl)pentanoic acid hydrochloride] | – | 170 | – | –
15 | Cc1ccc(C(CCN)CC(=O)O)cc1 (racemic) [Compound 1c, (R,S)-5-Amino-3-(4-methylphenyl)pentanoic acid hydrochloride] | – | > 300 | none of these compounds were effective | –
16 | COc1ccc(C(CCN)CC(=O)O)cc1 (racemic) (as salt: hydrochloride) [Compound 1h, (R,S)-5-Amino-3-(4-methoxyphenyl)pentanoic acid hydrochloride] | 194 to 195 | – | – | –
17 | NCCC(CC(=O)O)c1ccc(Cl)cc1 (racemic) [Compound 1a, (R,S)-5-Amino-3-(4-chlorophenyl)pentanoic acid hydrochloride] | – | 46 | – | –
18 | COc1cccc(C(CCN)CC(=O)O)c1 (racemic) (as salt: hydrochloride) [Compound 1g, (R,S)-5-Amino-3-(3-methoxyphenyl)pentanoic acid hydrochloride] | 182 to 184 | – | – | –
